In ChEMBL document CHEMBL4052759, “Discovery of DS79182026: A potent orally active hepcidin production inhibitor” (Bioorg Med Chem Lett, 2017):
Values belong to the compound of their own block, whether it stands above or below them.

Key:
[1] = target: T1, Aurora kinase A (Homo sapiens) (UniProt O14965); assay: Inhibition of AurA (unknown origin) at 0.078 uM relative to control
T1 sequence (whole entry): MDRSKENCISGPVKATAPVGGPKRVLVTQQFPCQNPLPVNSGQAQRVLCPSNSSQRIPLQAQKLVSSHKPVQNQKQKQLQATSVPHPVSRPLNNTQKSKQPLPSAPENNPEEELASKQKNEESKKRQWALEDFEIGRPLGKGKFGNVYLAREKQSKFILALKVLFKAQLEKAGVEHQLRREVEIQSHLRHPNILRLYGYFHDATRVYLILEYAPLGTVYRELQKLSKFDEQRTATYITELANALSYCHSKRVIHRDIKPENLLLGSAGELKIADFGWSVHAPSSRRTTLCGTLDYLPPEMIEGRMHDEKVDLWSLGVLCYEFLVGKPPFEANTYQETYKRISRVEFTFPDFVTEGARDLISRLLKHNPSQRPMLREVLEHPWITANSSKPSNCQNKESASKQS

[2] = target: Tyrosine-protein kinase Lck (Homo sapiens) (UniProt P06239); assay: Inhibition of LCK (unknown origin) at 0.078 uM relative to control
[3] = target: Protein kinase C epsilon type (Homo sapiens) (UniProt Q02156); assay: Inhibition of PKC-epsilon (unknown origin) at 0.45 uM relative to control
[4] = target: Tyrosine-protein kinase Lck (Homo sapiens) (UniProt P06239); assay: Inhibition of LCK (unknown origin) at 0.45 uM relative to control
[5] = target: Cyclin-dependent kinase 1/cyclin B1 (Homo sapiens) (UniProt P06493+P14635); assay: Inhibition of CDK1/Cycline B1 (unknown origin) at 0.45 uM relative to control; type: protein-complex assay
[6] = target: Glycogen synthase kinase-3 beta (Homo sapiens) (UniProt P49841); assay: Inhibition of GSK3b (unknown origin) at 0.45 uM relative to control
[7] = target: T2, cGMP-dependent protein kinase 1 (Homo sapiens) (UniProt Q13976); assay: Inhibition of PKG-alpha (unknown origin) at 0.45 uM relative to control
T2 sequence (whole entry): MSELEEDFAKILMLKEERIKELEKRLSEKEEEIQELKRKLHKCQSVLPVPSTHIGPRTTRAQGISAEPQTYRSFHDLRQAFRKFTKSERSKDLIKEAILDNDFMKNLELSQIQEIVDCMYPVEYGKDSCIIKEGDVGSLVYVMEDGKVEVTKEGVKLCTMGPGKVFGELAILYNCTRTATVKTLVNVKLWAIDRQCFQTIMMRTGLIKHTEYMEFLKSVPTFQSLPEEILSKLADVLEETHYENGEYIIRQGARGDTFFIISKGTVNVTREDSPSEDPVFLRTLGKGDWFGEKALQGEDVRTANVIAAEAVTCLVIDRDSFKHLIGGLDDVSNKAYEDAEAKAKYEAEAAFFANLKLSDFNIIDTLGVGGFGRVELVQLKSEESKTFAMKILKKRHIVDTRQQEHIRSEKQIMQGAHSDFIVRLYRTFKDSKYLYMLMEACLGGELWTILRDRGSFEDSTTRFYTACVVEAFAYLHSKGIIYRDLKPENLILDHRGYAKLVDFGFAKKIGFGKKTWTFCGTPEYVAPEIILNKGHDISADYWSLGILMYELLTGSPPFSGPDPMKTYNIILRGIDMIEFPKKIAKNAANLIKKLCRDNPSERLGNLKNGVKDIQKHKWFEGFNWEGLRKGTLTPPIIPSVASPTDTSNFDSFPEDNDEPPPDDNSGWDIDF

[8] = target: Ephrin type-A receptor 5 (Homo sapiens) (UniProt P54756); assay: Inhibition of EPHA5 (unknown origin) at 0.45 uM relative to control
[9] = tested on: Proto-oncogene tyrosine-protein kinase receptor Ret (Homo sapiens), P07949 [V804L]; assay: Inhibition of Ret V804L mutant (unknown origin) at 0.45 uM relative to control
[10] = target: T2, cGMP-dependent protein kinase 1 (Homo sapiens); assay: Inhibition of PKG1-beta (unknown origin) at 0.49 uM relative to control
[11] = target: Calcium/calmodulin-dependent protein kinase type 1D (Homo sapiens) (UniProt Q8IU85); assay: Inhibition of CamK1d (unknown origin) at 0.49 uM relative to control
[12] = target: RAC-gamma serine/threonine-protein kinase (Homo sapiens) (UniProt Q9Y243); assay: Inhibition of AKT3 (unknown origin) at 0.49 uM relative to control
[13] = target: Dual specificity tyrosine-phosphorylation-regulated kinase 3 (Homo sapiens) (UniProt O43781); assay: Inhibition of DYRK3 (unknown origin) at 0.49 uM relative to control
[14] = target: Tyrosine-protein kinase ITK/TSK (Homo sapiens) (UniProt Q08881); assay: Inhibition of ITK (unknown origin) at 0.49 uM relative to control
[15] = tested on: Tyrosine-protein kinase ABL1 (Homo sapiens), P00519 [Y253F]; assay: Inhibition of ABL1 Y253F mutant (unknown origin) at 0.49 uM relative to control

Chain of Tyrosine-protein kinase Lck (Homo sapiens) (P06239 2-509 limits assumed): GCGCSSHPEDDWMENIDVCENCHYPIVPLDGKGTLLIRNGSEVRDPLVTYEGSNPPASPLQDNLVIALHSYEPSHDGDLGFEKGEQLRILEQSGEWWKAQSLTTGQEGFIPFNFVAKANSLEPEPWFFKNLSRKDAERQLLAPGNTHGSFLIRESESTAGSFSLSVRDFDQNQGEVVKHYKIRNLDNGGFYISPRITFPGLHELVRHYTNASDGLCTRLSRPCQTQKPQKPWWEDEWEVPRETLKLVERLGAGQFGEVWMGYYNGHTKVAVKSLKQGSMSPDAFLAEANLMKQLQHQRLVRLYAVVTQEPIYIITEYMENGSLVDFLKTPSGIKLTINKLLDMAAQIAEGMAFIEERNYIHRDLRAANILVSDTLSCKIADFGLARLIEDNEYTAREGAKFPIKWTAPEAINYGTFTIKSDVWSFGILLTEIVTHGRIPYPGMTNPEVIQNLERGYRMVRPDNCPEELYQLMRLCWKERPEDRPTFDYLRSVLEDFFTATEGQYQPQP
Chain of Ephrin type-A receptor 5 (Homo sapiens) (P54756 whole entry): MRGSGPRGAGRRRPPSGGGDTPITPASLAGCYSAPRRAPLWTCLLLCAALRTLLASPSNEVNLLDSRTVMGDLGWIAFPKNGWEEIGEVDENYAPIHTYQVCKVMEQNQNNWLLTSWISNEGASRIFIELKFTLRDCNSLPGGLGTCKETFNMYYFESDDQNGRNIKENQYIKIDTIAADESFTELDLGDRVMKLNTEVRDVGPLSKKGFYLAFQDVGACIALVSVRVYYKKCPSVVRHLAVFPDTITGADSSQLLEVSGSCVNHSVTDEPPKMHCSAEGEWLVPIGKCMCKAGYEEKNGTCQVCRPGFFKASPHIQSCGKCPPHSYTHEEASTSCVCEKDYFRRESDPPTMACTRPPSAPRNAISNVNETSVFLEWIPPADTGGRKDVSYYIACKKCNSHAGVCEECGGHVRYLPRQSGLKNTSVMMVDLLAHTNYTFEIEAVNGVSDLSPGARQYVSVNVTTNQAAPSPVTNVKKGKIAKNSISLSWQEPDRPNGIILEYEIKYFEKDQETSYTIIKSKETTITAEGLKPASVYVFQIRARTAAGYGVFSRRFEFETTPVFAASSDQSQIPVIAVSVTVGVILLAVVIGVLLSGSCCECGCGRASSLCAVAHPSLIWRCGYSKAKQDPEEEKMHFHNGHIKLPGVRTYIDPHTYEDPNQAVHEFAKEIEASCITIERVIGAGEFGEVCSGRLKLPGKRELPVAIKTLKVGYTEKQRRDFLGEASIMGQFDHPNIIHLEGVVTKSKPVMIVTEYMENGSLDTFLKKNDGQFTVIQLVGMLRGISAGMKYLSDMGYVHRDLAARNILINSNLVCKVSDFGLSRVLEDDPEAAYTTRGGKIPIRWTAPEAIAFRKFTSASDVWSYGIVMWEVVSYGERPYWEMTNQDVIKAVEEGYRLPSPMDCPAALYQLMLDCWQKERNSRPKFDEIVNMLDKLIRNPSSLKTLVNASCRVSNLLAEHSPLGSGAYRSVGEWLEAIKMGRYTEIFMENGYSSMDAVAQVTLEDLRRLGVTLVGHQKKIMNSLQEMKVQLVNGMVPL
Chain of Glycogen synthase kinase-3 beta (Homo sapiens) (P49841 whole entry, looked up): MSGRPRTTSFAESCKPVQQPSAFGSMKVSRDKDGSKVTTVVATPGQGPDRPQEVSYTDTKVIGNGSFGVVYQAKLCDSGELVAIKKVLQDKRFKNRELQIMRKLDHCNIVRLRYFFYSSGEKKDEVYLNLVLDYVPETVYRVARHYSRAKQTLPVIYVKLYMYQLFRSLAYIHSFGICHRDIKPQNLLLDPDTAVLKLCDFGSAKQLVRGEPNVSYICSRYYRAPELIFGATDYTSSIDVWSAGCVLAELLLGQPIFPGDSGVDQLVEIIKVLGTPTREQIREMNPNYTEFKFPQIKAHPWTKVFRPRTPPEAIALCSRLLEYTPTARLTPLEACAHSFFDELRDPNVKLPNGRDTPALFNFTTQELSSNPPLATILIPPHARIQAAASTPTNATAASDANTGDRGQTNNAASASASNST
Chain of RAC-gamma serine/threonine-protein kinase (Homo sapiens) (Q9Y243 whole entry): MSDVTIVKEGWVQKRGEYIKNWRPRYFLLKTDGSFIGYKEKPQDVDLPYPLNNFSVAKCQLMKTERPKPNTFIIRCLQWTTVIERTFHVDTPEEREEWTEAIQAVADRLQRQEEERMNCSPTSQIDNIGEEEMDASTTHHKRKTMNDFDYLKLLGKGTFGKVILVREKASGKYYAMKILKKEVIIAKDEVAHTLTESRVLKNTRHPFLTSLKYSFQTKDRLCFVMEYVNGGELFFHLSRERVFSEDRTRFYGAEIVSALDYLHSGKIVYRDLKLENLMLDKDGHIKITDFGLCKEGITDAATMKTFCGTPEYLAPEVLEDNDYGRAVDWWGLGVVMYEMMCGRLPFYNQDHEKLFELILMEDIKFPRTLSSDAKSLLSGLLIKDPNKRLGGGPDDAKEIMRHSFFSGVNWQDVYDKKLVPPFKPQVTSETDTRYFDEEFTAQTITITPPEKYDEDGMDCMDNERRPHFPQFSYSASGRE
Chain of Dual specificity tyrosine-phosphorylation-regulated kinase 3 (Homo sapiens) (O43781 whole entry): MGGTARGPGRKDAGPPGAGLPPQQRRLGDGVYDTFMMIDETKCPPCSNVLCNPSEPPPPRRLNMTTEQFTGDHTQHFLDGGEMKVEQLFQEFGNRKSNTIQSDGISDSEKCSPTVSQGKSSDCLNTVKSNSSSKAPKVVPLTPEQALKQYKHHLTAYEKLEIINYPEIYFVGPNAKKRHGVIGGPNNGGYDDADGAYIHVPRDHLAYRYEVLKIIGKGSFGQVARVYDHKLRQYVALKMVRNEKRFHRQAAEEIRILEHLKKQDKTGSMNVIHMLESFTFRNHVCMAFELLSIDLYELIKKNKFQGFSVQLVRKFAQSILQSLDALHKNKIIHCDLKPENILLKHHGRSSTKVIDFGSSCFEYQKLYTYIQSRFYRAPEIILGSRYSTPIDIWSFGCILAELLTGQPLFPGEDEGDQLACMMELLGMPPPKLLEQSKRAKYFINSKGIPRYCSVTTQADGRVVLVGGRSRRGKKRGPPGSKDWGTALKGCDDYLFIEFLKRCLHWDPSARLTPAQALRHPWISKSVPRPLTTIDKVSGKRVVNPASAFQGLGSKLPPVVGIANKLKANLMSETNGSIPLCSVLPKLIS
Chain of Cyclin-dependent kinase 1/cyclin B1 (Homo sapiens) (P06493 whole entry, looked up): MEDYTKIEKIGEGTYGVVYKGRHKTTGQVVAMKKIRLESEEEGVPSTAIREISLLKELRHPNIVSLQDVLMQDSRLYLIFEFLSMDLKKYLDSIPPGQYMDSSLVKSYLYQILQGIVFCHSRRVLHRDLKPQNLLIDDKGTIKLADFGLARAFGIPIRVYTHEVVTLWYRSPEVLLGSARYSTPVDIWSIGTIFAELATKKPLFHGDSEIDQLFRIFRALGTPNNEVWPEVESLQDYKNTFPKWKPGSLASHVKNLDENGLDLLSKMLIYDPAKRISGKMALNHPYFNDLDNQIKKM
Chain of Cyclin-dependent kinase 1/cyclin B1 (Homo sapiens) (P14635 whole entry, looked up): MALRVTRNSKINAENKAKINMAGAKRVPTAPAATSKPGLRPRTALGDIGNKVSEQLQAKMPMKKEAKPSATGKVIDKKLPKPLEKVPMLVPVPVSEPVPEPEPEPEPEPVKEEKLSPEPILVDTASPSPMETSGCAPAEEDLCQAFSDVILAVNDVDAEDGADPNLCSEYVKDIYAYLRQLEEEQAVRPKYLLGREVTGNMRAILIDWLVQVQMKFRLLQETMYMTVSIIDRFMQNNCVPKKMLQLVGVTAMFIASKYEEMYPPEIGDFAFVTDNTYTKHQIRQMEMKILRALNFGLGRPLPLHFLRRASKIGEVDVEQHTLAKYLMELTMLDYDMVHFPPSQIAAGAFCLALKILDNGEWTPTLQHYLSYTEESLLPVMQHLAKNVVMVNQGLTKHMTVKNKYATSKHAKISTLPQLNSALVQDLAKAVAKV
Chain of Protein kinase C epsilon type (Homo sapiens) (Q02156 whole entry): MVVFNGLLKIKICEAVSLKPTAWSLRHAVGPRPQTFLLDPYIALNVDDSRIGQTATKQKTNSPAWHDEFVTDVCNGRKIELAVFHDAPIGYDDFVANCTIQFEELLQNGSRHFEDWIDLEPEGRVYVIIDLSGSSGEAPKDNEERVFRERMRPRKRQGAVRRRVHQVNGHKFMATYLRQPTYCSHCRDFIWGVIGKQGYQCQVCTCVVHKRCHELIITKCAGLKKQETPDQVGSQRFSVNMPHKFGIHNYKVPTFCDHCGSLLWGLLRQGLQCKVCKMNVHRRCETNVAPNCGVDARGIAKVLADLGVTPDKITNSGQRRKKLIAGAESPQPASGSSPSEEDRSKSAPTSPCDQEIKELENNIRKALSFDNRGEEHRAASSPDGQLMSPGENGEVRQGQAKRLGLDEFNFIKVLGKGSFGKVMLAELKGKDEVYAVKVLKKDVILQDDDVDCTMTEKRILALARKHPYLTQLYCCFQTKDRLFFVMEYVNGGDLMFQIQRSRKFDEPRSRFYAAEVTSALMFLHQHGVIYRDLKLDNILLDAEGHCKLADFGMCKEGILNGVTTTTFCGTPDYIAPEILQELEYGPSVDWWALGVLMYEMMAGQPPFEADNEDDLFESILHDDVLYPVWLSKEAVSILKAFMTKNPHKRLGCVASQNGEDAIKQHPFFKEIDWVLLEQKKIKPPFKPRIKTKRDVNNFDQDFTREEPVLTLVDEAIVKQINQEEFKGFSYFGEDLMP
Chain of Calcium/calmodulin-dependent protein kinase type 1D (Homo sapiens) (Q8IU85 whole entry, looked up): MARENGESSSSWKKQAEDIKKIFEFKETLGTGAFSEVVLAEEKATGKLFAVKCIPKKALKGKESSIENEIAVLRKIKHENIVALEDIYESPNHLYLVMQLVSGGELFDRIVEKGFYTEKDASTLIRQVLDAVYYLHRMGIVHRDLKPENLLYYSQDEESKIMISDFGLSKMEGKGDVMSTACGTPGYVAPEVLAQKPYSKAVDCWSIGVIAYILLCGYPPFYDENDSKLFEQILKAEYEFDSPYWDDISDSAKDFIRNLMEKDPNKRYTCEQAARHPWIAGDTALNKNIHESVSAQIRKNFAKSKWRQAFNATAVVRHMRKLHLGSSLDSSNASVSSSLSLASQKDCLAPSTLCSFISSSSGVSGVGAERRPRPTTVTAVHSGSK

inhibition [1]: -1.7%
inhibition [2]: 4.7%
SMILES: COC(=O)Nc1noc2cc(-c3c(-c4ccccn4)n[nH]c3C)ccc12

inhibition [3]: 9%
inhibition [4]: 32.3%
inhibition [5]: 1.3%
inhibition [6]: 1.3%
inhibition [7]: -1.7%
inhibition [8]: 3%
inhibition [9]: 21.3%
SMILES: Cc1n[nH]c(C)c1-c1ccc2c(NC(=O)c3ccc(N4CCN(C)CC4)cc3)n[nH]c2c1

inhibition [10]: 2%
inhibition [11]: -4.3%
inhibition [12]: 7.3%
inhibition [13]: 1%
inhibition [14]: -1%
inhibition [15]: 24.3%
SMILES: Cc1[nH]nc(C2CC2)c1-c1ccc2c(NC(=O)C3CC3)noc2c1
